Each structure is given as a SMILES string.

Experiment [1] has as its system gastric antrum of male dogs. Description: Effects on gastric motor activity (force transducers, conscious dogs, postcibal period). The class given is in vivo. As to conditions: dog, until 1 hour after administration, 30 minutes before administration = 100%. The source says: (§1) Test 1 [Effects on Gastric and Colonic Motor Activity]
(§2) Force transducers (“F-12IS”, trade name; manufactured by Star Medical Technologies, Inc.) were chronically sutured in the gastric antrum and large intestines of male dogs (body weight: 9 to 11 kg, 5 to 6 dogs per group) (Itoh, Z. et al., Am. J. Dig. Dis. 22, 117-124, 1977). Contraction signals from the respective regions in postcibal period were amplified and recorded (“RTA-1200”, trade name; manufactured by Nihon Kohden Corporation). The contraction signals, which had been collected in a computer, were analyzed by using an analysis program (“DSSDDWHD V.30”, trade name; prepared by Nihon Kohden Corporation), whereby motor indexes were calculated. The test drugs were administered through catheters which had been chronically indwelled beforehand in the duodenum, respectively. Supposing that the coefficient of motor 30 minutes before the administration of drug was 100%, the results were calculated as percents of motor index until 1 hour after the administration.

The test system of experiment [2] is large intestines of male dogs. The experiment in a line: Effects on colonic motor activity (force transducers, conscious dogs, postcibal period). Format: in vivo. Particulars: dog; for Percent of motor index, large intestine: until 1 hour after administration, 30 minutes before administration = 100%; for Effect on colonic motility (in words): intraduodenal, doses of Table 1.
Text: as §1, §2

A further experiment concerns male SD rats. The experiment in a line: Effects on defecation in rats. The class given is in vivo, rat. As to conditions: 10 mg/kg intraperitoneal, dry stool weight until 60 minutes after administration, control average = 100%. As to the method: Test 2 [Effects on Defecation]
Test drugs were intraperitoneally administered to male SD rats (8 rats per group). Stools were recovered until 60 minutes after the administration, and their dry weights were measured. Supposing that that the average of stool weights in a control group was 100%, the averages of percent weights of individual test drug groups were calculated.

As to `COc1ccc(C(=O)NCc2ccc(OCCN(C)C)cc2)cc1OC` [Itopride, itopride], in experiment [1] (10 mg/kg intraduodenal), the “Percent of motor index, gastric antrum” value came to 132.7%. The “Percent of motor index, large intestine” value in experiment [2] (10 mg/kg intraduodenal) is listed as 122.1%. Moreover, the “Effect on colonic motility (in words)” value in experiment [2] is “no significant effect”.

In the case of `CCOc1cc(N)c(Cl)cc1C(=O)NCC1CN(Cc2ccc(F)cc2)CCO1` (stereo not drawn) [Mosapride, mosapride], in experiment [1] (3 mg/kg intraduodenal), the “Percent of motor index, gastric antrum” value is on record as 146.2%. Moreover, in experiment [2] (3 mg/kg intraduodenal), the “Percent of motor index, large intestine” value was 119.2%. In addition, the “Effect on colonic motility (in words)” value in experiment [2] is “no significant effect”.

For `CC(C)N(CCNC(=O)c1csc(NC(=O)c2cccc(N)c2)n1)C(C)C` [Compound 3, N-(N′,N′-diisopropylaminoethyl)-[2-(3-aminobenzoyl-amino)-1,3-thiazol-4-yl]carboxamide], the “Percent of motor index, gastric antrum” value in experiment [1] (10 mg/kg intraduodenal) is given as 244.6%. In experiment [2] (10 mg/kg intraduodenal), the “Percent of motor index, large intestine” value was 249.9%. Also, the Percent stool weight in the experiment with male SD rats is recorded as 733.3%.

`COc1cc(O)c(C(=O)Nc2nc(C(=O)NCCN(C(C)C)C(C)C)cs2)cc1OC.Cl.O.O.O` [Compound 1, N-(N′,N′-diisopropylaminoethyl)-[2-(2-hydroxy-4,5-dimethoxybenzoylamino)-1,3-thiazol-4-yl]carboxamide HCL trihydrate]: the “Percent of motor index, gastric antrum” value in experiment [1] (10 mg/kg intraduodenal) is 163.7%. In experiment [2] (10 mg/kg intraduodenal), the “Percent of motor index, large intestine” value was 136.1%. The Percent stool weight with male SD rats is on record as 361.8%.

With `CC(C)N(CCNC(=O)c1csc(NC(=O)c2cccc(C#N)c2)n1)C(C)C.Cl` [Compound 2, N-(N′,N′-diisopropylaminoethyl)-[2-(3-cyanobenzoyl-amino)-1,3-thiazol-4-yl]carboxamide hydrochloride], the “Percent of motor index, gastric antrum” value in experiment [1] (10 mg/kg intraduodenal) is recorded as 189.5%. Also, in experiment [2] (10 mg/kg intraduodenal), the “Percent of motor index, large intestine” value worked out at 221.7%. For the same compound, the Percent stool weight with male SD rats came to 766.7%.

For the compound `COc1cc(N)c(Cl)cc1C(=O)NC1CCN(CCCOc2ccc(F)cc2)CC1OC` (stereo not drawn) [Cisapride, cisapride], the “Percent of motor index, gastric antrum” value in experiment [1] (1 mg/kg intraduodenal) is recorded as 158.7%. The “Percent of motor index, large intestine” value in experiment [2] (1 mg/kg intraduodenal) amounted to 114.5%. For the same compound, the “Effect on colonic motility (in words)” value in experiment [2] is reported as “no significant effect”.
